These results are taken from patent EP0674651B1, “SUBSTITUTED 6-AZAANDROSTENONES” (priority 1992, dated 1994).

The target in assay [1] is T1, human type 1 5α-reductase (Homo sapiens, UniProt P18405).
T1 sequence (P18405 1-259): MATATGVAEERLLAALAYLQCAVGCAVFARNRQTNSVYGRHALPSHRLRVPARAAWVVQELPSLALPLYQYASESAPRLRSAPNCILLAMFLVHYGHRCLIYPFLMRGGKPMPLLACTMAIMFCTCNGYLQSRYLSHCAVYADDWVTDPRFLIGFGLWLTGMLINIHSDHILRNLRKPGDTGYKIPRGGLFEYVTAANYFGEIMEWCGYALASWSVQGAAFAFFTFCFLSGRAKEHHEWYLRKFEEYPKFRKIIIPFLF
Kind of assay: 5α-reductase in vitro inhibitory activity, human type 1.

Assay [2] concerns the target T2, human type 2 5α-reductase (Homo sapiens, UniProt P31213).
T2 sequence (P31213 1-254): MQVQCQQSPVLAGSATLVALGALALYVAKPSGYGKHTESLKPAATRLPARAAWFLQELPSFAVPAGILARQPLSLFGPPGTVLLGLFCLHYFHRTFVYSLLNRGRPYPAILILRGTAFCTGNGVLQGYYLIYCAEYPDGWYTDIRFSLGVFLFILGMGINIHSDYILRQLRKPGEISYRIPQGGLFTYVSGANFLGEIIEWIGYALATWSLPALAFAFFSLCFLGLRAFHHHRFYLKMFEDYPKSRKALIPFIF
Put plainly: 5α-reductase in vitro inhibitory activity, human type 2.
Experimental: (§1) Microsomes were prepared by homogenization of the tissue or cells, followed by differential centrifugation of the homogenate. […] Corresponding incubations were carried out with no test compound as a control study.
(§2) The percentage of conversion of testosterone to DHT in the presence of test compounds compared to the corresponding conversion in the control study was estimated using high pressure liquid chromatography (HPLC) with radiochemical detection.

Assay [3] addresses Rat Prostatic 5α-reductase. Put plainly: 5α-reductase in vitro inhibitory activity, rat prostatic. To be noted: read-out: IC50 Rat Prostatic; microsomes derived from prostate tissue from the rat.
Experimental: as §1, §2

Where two headings read alike, the source gives them in different places.

One may read the IC50 as the concentration needed to halve the response being measured. Regarding `CC(NC(=O)[C@H]1CC[C@H]2[C@@H]3CNC4=CC(=O)CC[C@]4(C)[C@H]3CC[C@]12C)C(c1ccccc1)c1ccccc1` (stereo partly drawn) [Compound 45, 17β-N-(2,2-Diphenyl-1-methyl)ethyl-carbamoyl-6-azaandrost-4-en-3-one], the values for the IC50 in assay [1], in assay [2] and in assay [3] were over 0.1 µM, under 0.01 µM and 0.01 to 0.1 µM, respectively.

As for “17β-N-2-(3-N-Methylpyrrole)ethyl-carbamoyl-6-azaandrost-4-en-3-one [Compound 29]”, the IC50 was over 0.1 µM in assay [1] (read-out: IC50 Human Type 1, microsomes of recombinant baculovirus infected SF9 cells, preincubated 10 minutes at pH 7.0, 100nM testosterone, 1 mM NADPH); 0.01 to 0.1 µM in assay [2] (read-out: IC50 Human Type 2, microsomes, preincubated 20 minutes at pH 6.0, 8nM testosterone, 1 mM NADPH); 0.01 to 0.1 µM in assay [3].

For the molecule `CC(C)c1cccc(C(C)C)c1NC(=O)[C@H]1CC[C@H]2[C@@H]3CNC4=CC(=O)CC[C@]4(C)[C@H]3CC[C@]12C` [Compound 14, 17β-N-(2,6-Di-i-propyl)phenyl-carbamoyl-6-azaandrost-4-en-3-one], the IC50 was 0.01 to 0.1 µM in assay [1], under 0.01 µM in assay [2] and under 0.01 µM in assay [3].

With `C[C@]12CC[C@H]3[C@@H](CNC4=CC(=O)CC[C@@]43C)[C@@H]1CC[C@@H]2C(=O)Nc1cc(C(F)(F)F)ccc1Cl` [Compound 44, 17β-N-(2-Chloro-5-trifluoromethyl)-phenyl-carbamoyl-6-azaandrost-4-en-3-one], the IC50 in assay [1] was 0.01 to 0.1 µM; in assay [2], under 0.01 µM; in assay [3] it was over 0.1 µM.

As to `C[C@]12CC[C@H]3[C@@H](CNC4=CC(=O)CC[C@@]43C)[C@@H]1CC[C@@H]2C(=O)Nc1ccc2c(c1)CCC2` [Compound 4, 17β-N-5-Indanylcarbamoyl-6-azaandrost-4-en-3-one], the IC50 is over 0.1 µM in assay [1], under 0.01 µM in assay [2] and over 0.1 µM in assay [3].

In the case of `CC1(C)C2CCC(CNC(=O)[C@H]3CC[C@H]4[C@@H]5CNC6=CC(=O)CC[C@]6(C)[C@H]5CC[C@]34C)C1C2` (stereo partly drawn) [Compound 39, 17β-N-Myrantyl-carbamoyl-6-azaandrost-4-en-3-one], the values for the IC50 in assay [1], in assay [2] and in assay [3] were 0.01 to 0.1 µM, under 0.01 µM and 0.01 to 0.1 µM, respectively.

For the molecule `C[C@]12CC[C@H]3[C@@H](CNC4=CC(=O)CC[C@@]43C)[C@@H]1CC[C@@H]2C(=O)NCc1ccc(F)cc1F` [Compound 42, 17β-N-(2,4-Difluoro)benzyl-carbamoyl-6-azaandrost-4-en-3-one], the IC50 in assay [1] is 0.01 to 0.1 µM; in assay [2] it was under 0.01 µM; in assay [3], under 0.01 µM.

Turning to `C[C@]12CC[C@H]3[C@@H](CNC4=CC(=O)CC[C@@]43C)[C@@H]1CC[C@@H]2C(=O)NC(Cc1ccccc1)c1ccccc1` (stereo partly drawn) [Compound 17, 17β-N-(α-Phenyl)phenethyl-carbamoyl-6-azaandrost-4-en-3-one], the values for the IC50 in assay [1], in assay [2] and in assay [3] were 0.01 to 0.1 µM, under 0.01 µM and under 0.01 µM, respectively.

Take `CC(C)Oc1ccc(C(=O)[C@H]2CC[C@H]3[C@@H]4CNC5=CC(=O)CC[C@]5(C)[C@H]4CC[C@]23C)cc1` [Compound 33, 17β-(1-Oxo-1 (4-isopropoxyphenyl)methyl)-6-azaandrost-4-en-3-one]: the results for the IC50 in assay [1], in assay [2] and in assay [3] were over 0.1 µM, 0.01 to 0.1 µM and 0.01 to 0.1 µM, respectively.

Consider `C[C@]12CC[C@H]3[C@@H](CNC4=CC(=O)CC[C@@]43C)[C@@H]1CC[C@@H]2C(=O)NC(c1ccc(F)cc1)c1cccs1` (stereo partly drawn) [Compound 18, 17β-N-(4-Fluorophenyl)(2-thiophene)methyl-carbamoyl-6-azaandrost-4-en-3-one], for which the figures for the IC50 in assay [1], in assay [2] and in assay [3] were 0.01 to 0.1 µM, under 0.01 µM and under 0.01 µM, respectively.

On to `C[C@]12CC[C@H]3[C@@H](CNC4=CC(=O)CC[C@@]43C)[C@@H]1CC[C@@H]2C(=O)NC(c1ccc(Cl)cc1)c1ccc(Cl)cc1` [Compound 47], for which the IC50 in assay [1] is 0.01 to 0.1 µM; in assay [2], under 0.01 µM; in assay [3], under 0.01 µM.

Take `C[C@]12CC[C@H]3[C@@H](CNC4=CC(=O)CC[C@@]43C)[C@@H]1CC[C@@H]2COC(=O)C(c1ccccc1)c1ccccc1` [Compound 28, 17β-Hydroxymethyl-(2,2-diphenylacetate)-6-azaandrost-4-en-3-one]: the IC50 was 0.01 to 0.1 µM in assay [1], 0.01 to 0.1 µM in assay [2] and under 0.01 µM in assay [3].

With `CC(C)CC(=O)OC[C@H]1CC[C@H]2[C@@H]3CNC4=CC(=O)CC[C@]4(C)[C@H]3CC[C@]12C` [Compound 27, 17β-Hydroxymethyl-(3-methylbutyrate)-6-azaandrost-4-en-3-one], the figures for the half-maximal inhibitory concentration (IC50) in assay [1], in assay [2] and in assay [3] were under 0.01 µM, under 0.01 µM and 0.01 to 0.1 µM, respectively.

`C[C@]12CC[C@H]3[C@@H](CNC4=CC(=O)CC[C@@]43C)[C@@H]1CC[C@@H]2C(=O)CC(c1ccccc1)c1ccccc1` [Compound 43, 17β-(1-Oxo-3.3-diphenylpropyl)-6-azaandrost-4-en-3-one]: the IC50 is under 0.01 µM in assay [1], under 0.01 µM in assay [2] and over 0.1 µM in assay [3].

Regarding `C[C@]12CC[C@H]3[C@@H](CNC4=CC(=O)CC[C@@]43C)[C@@H]1CC[C@@H]2C(=O)NN(c1ccccc1)c1ccccc1` [Compound 25, 17β-N-(2,2-Diphenyl)-hydrazidyl-6-azaandrost-4-en-3-one], the IC50 in assay [1] is 0.01 to 0.1 µM; in assay [2] it was under 0.01 µM; in assay [3] it was under 0.01 µM.

In the case of `C[C@]12CC[C@H]3[C@@H](CNC4=CC(=O)CC[C@@]43C)[C@@H]1CC[C@@H]2C(=O)NCC(c1ccccc1)c1ccccc1` [Compound 22, 17β-N-(2,2-Diphenyl)ethyl-carbamoyl-6-azaandrost-4-en-3-one], the IC50 in assay [1] was 0.01 to 0.1 µM; in assay [2], under 0.01 µM; in assay [3] it was under 0.01 µM.

For the molecule `C[C@]12CC[C@H]3[C@@H](CNC4=CC(=O)CC[C@@]43C)[C@@H]1CC[C@@H]2C(=O)NC(C1CCCCC1)C1CCCCC1` [Compound 34, 17β-N-(Dicyclohexyl)methyl-carbamoyl-6-azaandrost-4-en-3-one], the IC50 in assay [1] was 0.01 to 0.1 µM; in assay [2] it was under 0.01 µM; in assay [3], under 0.01 µM.

For the molecule `CC(C)c1cc(Br)c(NC(=O)[C@H]2CC[C@H]3[C@@H]4CNC5=CC(=O)CC[C@]5(C)[C@H]4CC[C@]23C)c(Br)c1` [Compound 49, 17β-N-(2,6-Dibromo-4-isopropyl)phenyl-carbamoyl-6-azaandrost-4-en-3-one], the IC50 in assay [1], in assay [2] and in assay [3] was under 0.01 µM each time.

On to `C[C@]12CC[C@H]3[C@@H](CNC4=CC(=O)CC[C@@]43C)[C@@H]1CC[C@@H]2C(=O)CC1CCCCC1` [Compound 2, 17β-(1-Oxo-2-cyclohexylethyl)-6-azaandrost-4-en-3-one], for which the 50% inhibitory concentration (IC50) in assay [1], in assay [2] and in assay [3] was under 0.01 µM in each case.

For the molecule `CC(NC(=O)[C@H]1CC[C@H]2[C@@H]3CNC4=CC(=O)CC[C@]4(C)[C@H]3CC[C@]12C)c1ccccc1` (stereo partly drawn) [Compound 35, 17β-N-(1-Phenyl)ethyl-carbamoyl-6-azaandrost-4-en-3-one], the IC50 in assay [1] is over 0.1 µM; in assay [2], under 0.01 µM; in assay [3], under 0.01 µM.

On to `CCCCCCCCCCc1ccc(NC(=O)[C@H]2CC[C@H]3[C@@H]4CNC5=CC(=O)CC[C@]5(C)[C@H]4CC[C@]23C)cc1` [Compound 36, 17β-N-(4-Decyl)phenyl-carbamoyl-6-azaandrost-4-en-3-one], for which the IC50 in assay [1] is over 0.1 µM; in assay [2] it was under 0.01 µM; in assay [3], under 0.01 µM.

Take `CC(C)(CO)NC(=O)[C@H]1CC[C@H]2[C@@H]3CNC4=CC(=O)CC[C@]4(C)[C@H]3CC[C@]12C` [Compound 21, 17β-N-(1,1-Dimethyl)-2-hydroxyethyl-carbamoyl-6-azaandrost-4-en-3-one]: the figures for the IC50 in assay [1], in assay [2] and in assay [3] were over 0.1 µM, 0.01 to 0.1 µM and over 0.1 µM, respectively.

Take `Cc1cc(C)c(NC(=O)[C@H]2CC[C@H]3[C@@H]4CNC5=CC(=O)CC[C@]5(C)[C@H]4CC[C@]23C)c(C)c1` [Compound 40, 17β-N-(2,4,6-Trimethyl)phenyl-carbamoyl-6-azaandrost-4-en-3-one]: the figures for the IC50 in assay [1], in assay [2] and in assay [3] were 0.01 to 0.1 µM, under 0.01 µM and 0.01 to 0.1 µM, respectively.

As for `CC12CCC(=O)C=C1NCC1C2CCC2(C)C(C(=O)NC(c3ccccc3)c3ccc(Cl)cc3)CCC12` (stereo not drawn) [Compound 11, 17β-N-(4-Chlorophenyl)(phenyl)methyl-carbamoyl-6-azaandrost-4-en-3-one], the half-maximal inhibitory concentration (IC50) is 0.01 to 0.1 µM in assay [1], under 0.01 µM in assay [2] and under 0.01 µM in assay [3].

For the molecule `C[C@]12CC[C@H]3[C@@H](CNC4=CC(=O)CC[C@@]43C)[C@@H]1CC[C@@H]2C(=O)NCCC(c1ccccc1)c1ccccc1` [Compound 16, 17β-N-(3,3-Diphenyl)propyl-carbamoyl-6-azaandrost-4-en-3-one], the results for the IC50 in assay [1], in assay [2] and in assay [3] were 0.01 to 0.1 µM, under 0.01 µM and under 0.01 µM, respectively.

`C[C@]12CC[C@H]3[C@@H](CNC4=CC(=O)CC[C@@]43C)[C@@H]1CC[C@@H]2C(=O)NCc1ccco1` [Compound 19, 17β-N-(2-Furanyl)methyl-carbamoyl-6-azaandrost-4-en-3-one]: the IC50 in assay [1] is over 0.1 µM; in assay [2], 0.01 to 0.1 µM; in assay [3] it was 0.01 to 0.1 µM.
